For 1 compound, IC50 results are on record in article PMC4406354 (Journal of bone and mineral research : the official journal …, 2015).

This assay addresses T1, tissue-nonspecific alkaline phosphatase (TNAP) (Homo sapiens, UniProt P05186).
T1 sequence (P05186 18-501): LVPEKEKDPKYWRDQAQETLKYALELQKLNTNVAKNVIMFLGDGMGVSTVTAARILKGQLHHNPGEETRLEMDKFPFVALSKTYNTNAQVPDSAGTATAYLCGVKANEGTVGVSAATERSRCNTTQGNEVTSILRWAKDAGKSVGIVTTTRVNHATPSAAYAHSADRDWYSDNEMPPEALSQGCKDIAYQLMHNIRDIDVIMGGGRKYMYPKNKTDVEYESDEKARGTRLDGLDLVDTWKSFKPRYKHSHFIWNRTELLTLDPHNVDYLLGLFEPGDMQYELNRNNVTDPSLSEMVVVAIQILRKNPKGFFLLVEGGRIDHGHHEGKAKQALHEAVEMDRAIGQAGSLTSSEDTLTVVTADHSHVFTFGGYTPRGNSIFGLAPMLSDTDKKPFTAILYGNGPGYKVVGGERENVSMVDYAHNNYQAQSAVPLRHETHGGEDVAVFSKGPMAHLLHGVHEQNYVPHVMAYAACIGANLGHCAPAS
Description: in vitro TNAP inhibition IC50. The format is biochemical.

Structures are written as SMILES.

Compound `COc1ccc(Cl)cc1S(=O)(=O)Nc1cncc(C(N)=O)c1` [SBI-425] displayed an IC50 of 14 nM. This counts as double-digit nanomolar.
